Values quoted from earlier work in patent US20090131498A1, “Enantioselective Synthesis of Merrilactone and Its Analogs” (priority 2005, published 2009).

Test system: neurite growth
Details: described by Fukuyama et al. (ref. 3)

## C[C@@]12COC(=O)[C@]1(C)C1O[C@]3(C)[C@@H](O)C[C@]24OC(=O)C[C@]143 (stereo partly shown) [merrilactone A, Merrilactone A]
  activity in a neurite growth assay: promising activity
